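Growth conditions: 96-well plates. Treatment: test compound, 48 hours, 5 concentrations. Analysis: linear interpolation between bracketing concentrations; unreached endpoints set to highest concentration. At the GI50, growth is halved. TGI: concentration producing complete growth inhibition.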
Experiments:
Experiment in all cases: growth of human tumour cells (NCI), 48 h
NCI-H460 lung = system: NCI-H460 lung
MDA-MB-468 breast = system: MDA-MB-468 breast
HCT-116 colon = system: HCT-116 colon
NCI-H522 lung = system: NCI-H522 lung
SNB-75 CNS = system: SNB-75 CNS
IGROV1 ovarian = system: IGROV1 ovarian
TK-10 renal = system: TK-10 renal
SF-539 CNS = system: SF-539 CNS
CCRF-CEM leukemia = system: CCRF-CEM leukemia
K-562 leukemia = system: K-562 leukemia
OVCAR-3 ovarian = system: OVCAR-3 ovarian
KM12 colon = system: KM12 colon
MDA-MB-435 = system: MDA-MB-435
RPMI-8226 leukemia = system: RPMI-8226 leukemia
COLO 205 colon = system: COLO 205 colon
A549 NSCLC = system: A549 NSCLC
UACC-62 melanoma = system: UACC-62 melanoma
OVCAR-8 ovarian = system: OVCAR-8 ovarian
SF-268 CNS = system: SF-268 CNS
HL-60(TB) leukemia = system: HL-60(TB) leukemia
LOX IMVI melanoma = system: LOX IMVI melanoma
SNB-19 CNS = system: SNB-19 CNS
NCI/ADR-RES ovarian = system: NCI/ADR-RES ovarian
PC-3 prostate = system: PC-3 prostate
UACC-257 melanoma = system: UACC-257 melanoma
MOLT-4 leukemia = system: MOLT-4 leukemia
HCT-15 colon = system: HCT-15 colon
RXF 393 renal = system: RXF 393 renal
BT-549 breast = system: BT-549 breast
SK-MEL-2 melanoma = system: SK-MEL-2 melanoma
A498 renal = system: A498 renal
EKVX NSCLC = system: EKVX NSCLC
MALME-3M melanoma = system: MALME-3M melanoma
T-47D breast = system: T-47D breast
SK-MEL-5 melanoma = system: SK-MEL-5 melanoma
HOP-92 NSCLC = system: HOP-92 NSCLC
SR leukemia = system: SR leukemia
MDA-MB-231 breast = system: MDA-MB-231 breast
SW-620 colon = system: SW-620 colon
SK-MEL-28 melanoma = system: SK-MEL-28 melanoma
MCF7 breast = system: MCF7 breast
M14 melanoma = system: M14 melanoma
HCC-2998 colon = system: HCC-2998 colon
CAKI-1 renal = system: CAKI-1 renal
DU-145 prostate = system: DU-145 prostate
UO-31 renal = system: UO-31 renal
786-0 renal = system: 786-0 renal
SK-OV-3 ovarian = system: SK-OV-3 ovarian
HOP-62 NSCLC = system: HOP-62 NSCLC
NCI-H226 lung = system: NCI-H226 lung
OVCAR-5 ovarian = system: OVCAR-5 ovarian
SF-295 CNS = system: SF-295 CNS
HS 578T breast = system: HS 578T breast
HT29 colon = system: HT29 colon
SN12C renal = system: SN12C renal
OVCAR-4 ovarian = system: OVCAR-4 ovarian
ACHN renal = system: ACHN renal
NCI-H23 lung = system: NCI-H23 lung
U251 CNS = system: U251 CNS

Compound: COc1cc(-c2nc3ccc(C)cc3[nH]2)ccc1OCc1nnc(-c2ccc(Br)cc2)o1
- GI50 (NCI-H460 lung): 27.8 µM
- TGI (NCI-H460 lung): > 100 µM
- GI50 (MDA-MB-468 breast): 14 µM
- TGI (MDA-MB-468 breast): 30.9 µM
- GI50 (HCT-116 colon): 25.4 µM
- TGI (HCT-116 colon): > 100 µM
- GI50 (NCI-H522 lung): 17.1 µM
- TGI (NCI-H522 lung): 45 µM
- GI50 (SNB-75 CNS): 12.2 µM
- TGI (SNB-75 CNS): 56.8 µM
- GI50 (IGROV1 ovarian): 16.3 µM
- TGI (IGROV1 ovarian): > 100 µM
- GI50 (TK-10 renal): 27.6 µM
- TGI (TK-10 renal): 94.7 µM
- GI50 (SF-539 CNS): 12.6 µM
- TGI (SF-539 CNS): 26.7 µM
- GI50 (CCRF-CEM leukemia): 28.3 µM
- TGI (CCRF-CEM leukemia): > 100 µM
- GI50 (K-562 leukemia): 15.4 µM
- TGI (K-562 leukemia): > 100 µM
- GI50 (OVCAR-3 ovarian): 20.5 µM
- TGI (OVCAR-3 ovarian): 52.9 µM
- GI50 (KM12 colon): 55.1 µM
- TGI (KM12 colon): > 100 µM
- GI50 (MDA-MB-435): 18.7 µM
- TGI (MDA-MB-435): 53.3 µM
- GI50 (RPMI-8226 leukemia): 8.54 µM
- TGI (RPMI-8226 leukemia): > 100 µM
- GI50 (COLO 205 colon): 27.1 µM
- TGI (COLO 205 colon): > 100 µM
- GI50 (A549 NSCLC): 31 µM
- TGI (A549 NSCLC): > 100 µM
- GI50 (UACC-62 melanoma): 20.1 µM
- TGI (UACC-62 melanoma): > 100 µM
- GI50 (OVCAR-8 ovarian): 16.1 µM
- TGI (OVCAR-8 ovarian): 45.3 µM
- GI50 (SF-268 CNS): 36.1 µM
- TGI (SF-268 CNS): > 100 µM
- GI50 (HL-60(TB) leukemia): 18.6 µM
- TGI (HL-60(TB) leukemia): 39 µM
- GI50 (LOX IMVI melanoma): 12.1 µM
- TGI (LOX IMVI melanoma): 27.5 µM
- GI50 (SNB-19 CNS): 52.3 µM
- TGI (SNB-19 CNS): > 100 µM
- GI50 (NCI/ADR-RES ovarian): 19.3 µM
- TGI (NCI/ADR-RES ovarian): > 100 µM
- GI50 (PC-3 prostate): 40.3 µM
- TGI (PC-3 prostate): > 100 µM
- GI50 (UACC-257 melanoma): 17.3 µM
- TGI (UACC-257 melanoma): 46.6 µM
- GI50 (MOLT-4 leukemia): 6.86 µM
- TGI (MOLT-4 leukemia): > 100 µM
- GI50 (HCT-15 colon): 12.2 µM
- TGI (HCT-15 colon): 85.7 µM
- GI50 (RXF 393 renal): 20.4 µM
- TGI (RXF 393 renal): 59.8 µM
- GI50 (BT-549 breast): 21.3 µM
- TGI (BT-549 breast): 48.8 µM
- GI50 (SK-MEL-2 melanoma): 27.7 µM
- TGI (SK-MEL-2 melanoma): > 100 µM
- GI50 (A498 renal): 30.3 µM
- TGI (A498 renal): 93.3 µM
- GI50 (EKVX NSCLC): 18.9 µM
- TGI (EKVX NSCLC): > 100 µM
- GI50 (MALME-3M melanoma): 12.4 µM
- TGI (MALME-3M melanoma): 28.7 µM
- GI50 (T-47D breast): 7.33 µM
- TGI (T-47D breast): 34.4 µM
- GI50 (SK-MEL-5 melanoma): 11.8 µM
- TGI (SK-MEL-5 melanoma): 34.1 µM
- GI50 (HOP-92 NSCLC): 15.6 µM
- TGI (HOP-92 NSCLC): > 100 µM
- GI50 (SR leukemia): 10.9 µM
- TGI (SR leukemia): 56.4 µM
- GI50 (MDA-MB-231 breast): 14.4 µM
- TGI (MDA-MB-231 breast): 33.1 µM
- GI50 (SW-620 colon): 32.8 µM
- TGI (SW-620 colon): > 100 µM
- GI50 (SK-MEL-28 melanoma): 22.2 µM
- TGI (SK-MEL-28 melanoma): > 100 µM
- GI50 (MCF7 breast): 4.28 µM
- TGI (MCF7 breast): 70.7 µM
- GI50 (M14 melanoma): 40.2 µM
- TGI (M14 melanoma): > 100 µM
- GI50 (HCC-2998 colon): 26.2 µM
- TGI (HCC-2998 colon): > 100 µM
- GI50 (CAKI-1 renal): 25.5 µM
- TGI (CAKI-1 renal): > 100 µM
- GI50 (DU-145 prostate): 51.7 µM
- TGI (DU-145 prostate): > 100 µM
- GI50 (UO-31 renal): 11.1 µM
- TGI (UO-31 renal): > 100 µM
- GI50 (786-0 renal): 16.6 µM
- TGI (786-0 renal): 45.5 µM
- GI50 (SK-OV-3 ovarian): 23.6 µM
- TGI (SK-OV-3 ovarian): > 100 µM
- GI50 (HOP-62 NSCLC): 28.4 µM
- TGI (HOP-62 NSCLC): > 100 µM
- GI50 (NCI-H226 lung): 15.3 µM
- TGI (NCI-H226 lung): > 100 µM
- GI50 (OVCAR-5 ovarian): 57.2 µM
- TGI (OVCAR-5 ovarian): > 100 µM
- GI50 (SF-295 CNS): 14.9 µM
- TGI (SF-295 CNS): 34.8 µM
- GI50 (HS 578T breast): 12.5 µM
- TGI (HS 578T breast): 45.4 µM
- GI50 (HT29 colon): 10.8 µM
- TGI (HT29 colon): 53.6 µM
- GI50 (SN12C renal): 29.9 µM
- TGI (SN12C renal): > 100 µM
- GI50 (OVCAR-4 ovarian): 14.3 µM
- TGI (OVCAR-4 ovarian): 38.4 µM
- GI50 (ACHN renal): 27.2 µM
- TGI (ACHN renal): > 100 µM
- GI50 (NCI-H23 lung): 32 µM
- TGI (NCI-H23 lung): > 100 µM
- GI50 (U251 CNS): 15.2 µM
- TGI (U251 CNS): 55.4 µM

Reference: PubChem BioAssay (NCI)
